Measurements reported in paper PMC2742306 (Molecular cell, 2009).
Positions count from the first letter of the chain named. Marks after values point to notes of the source that are not given here. Residues, ends and D or L forms follow the SMILES beside them. No end group written: not given here.

How the values were obtained:
wild-type DegS [1] = molecular target: T1, wild-type DegS (Escherichia coli, UniProt P0AEE3); format: biochemical, E. coli; details: wild-type DegS 0.9 μM trimer; 20 μM rhodamine-FP; saturating peptide
wild-type DegS [2] = molecular target: T1, wild-type DegS; test: OMP-peptide activation of RseA cleavage by wild-type DegS; format: biochemical, E. coli; details: for Hill Constant (peptide activation): 200 μM RseA
wild-type DegS [3] = molecular target: T1, wild-type DegS; format: biochemical, E. coli; details: for L0, equilibrium constant T/R of unliganded enzyme / KTP/KRP / kr, rate constant for cleavage of RseA by substrate-bound R-state subunits: MWC global fit; for L0, equilibrium constant T/R of unliganded enzyme: enzyme parameter, peptide-independent; for KTP/KRP: peptide preference for relaxed state; for kr, rate constant for cleavage of RseA by substrate-bound R-state subunits: same value for all enzymes and peptides
D320A DegS [4] = molecular target: T2, D320A DegS (Escherichia coli, UniProt P0AEE3, D320A); test: OMP-peptide activation of RseA cleavage by D320A DegS; format: biochemical, E. coli; details: D320A; for Hill Constant (peptide activation): 200 μM RseA
D320A DegS [5] = molecular target: T2, D320A DegS; test: Global fit to MWC allosteric model, D320A DegS; format: biochemical, E. coli; details: D320A, MWC global fit; for KRS, dissociation constant of RseA substrate for R-state subunit / KTS, dissociation constant of RseA substrate for T-state subunit: not peptide, binding; for L0, equilibrium constant T/R of unliganded enzyme: enzyme parameter, peptide-independent; for KTP/KRP: peptide preference for relaxed state; for kr, rate constant for cleavage of RseA by substrate-bound R-state subunits: same value for all enzymes and peptides
K243D mutant of DegS [6] = molecular target: T3, K243D mutant of DegS (Escherichia coli, UniProt P0AEE3, K243D); test: OMP-peptide activation of RseA cleavage by K243D DegS; format: biochemical, E. coli; details: K243D
K243D mutant of DegS [7] = molecular target: T3, K243D mutant of DegS; test: Global fit to MWC allosteric model, K243D DegS; format: biochemical, E. coli; details: K243D, MWC global fit
[8] = molecular target: DegS K243D (residues 27–355, N-terminal His6 tag) (E. coli) (UniProt P0AEE3); test: enzyme kinetics
[9] = molecular target: T4, DegS D320A (residues 27–355, N-terminal His6 tag) (E. coli, UniProt P0AEE3 27-355, D320A); test: enzyme kinetics
T4 sequence (looked up): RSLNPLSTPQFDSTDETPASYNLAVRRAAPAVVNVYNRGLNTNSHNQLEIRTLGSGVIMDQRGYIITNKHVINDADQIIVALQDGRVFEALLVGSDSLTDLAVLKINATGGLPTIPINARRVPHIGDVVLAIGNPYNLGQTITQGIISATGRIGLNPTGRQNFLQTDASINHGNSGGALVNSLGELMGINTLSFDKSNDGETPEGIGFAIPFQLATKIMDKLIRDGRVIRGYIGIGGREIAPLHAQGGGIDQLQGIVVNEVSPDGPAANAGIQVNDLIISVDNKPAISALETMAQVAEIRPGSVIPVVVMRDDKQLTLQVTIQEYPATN

[10] = molecular target: T5, DegS K243D (residues 27–355, N-terminal His6 tag) (E. coli, UniProt P0AEE3 27-355, K243D); test: enzyme kinetics
T5 sequence (looked up): T4 sequence (looked up) with K217D, A294D

[11] = saturating peptide, single sub-KM RseA concentration

T1 sequence (P0AEE3 27-355): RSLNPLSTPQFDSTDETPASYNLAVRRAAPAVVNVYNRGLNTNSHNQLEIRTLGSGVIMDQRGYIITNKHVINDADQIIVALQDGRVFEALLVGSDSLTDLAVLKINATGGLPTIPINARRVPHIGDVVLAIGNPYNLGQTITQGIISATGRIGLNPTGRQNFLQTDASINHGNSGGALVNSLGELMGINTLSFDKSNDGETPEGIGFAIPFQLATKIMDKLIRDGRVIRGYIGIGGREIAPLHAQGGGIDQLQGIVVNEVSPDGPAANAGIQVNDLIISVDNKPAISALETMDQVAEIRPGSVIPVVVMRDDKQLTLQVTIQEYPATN
T3 sequence (P0AEE3 27-355 K243D): as the sequence (P0AEE3 27-355) above, with K217D counted along it

KRRKGKVYYF [KRRKGKVYYF]
rate of rhodamine-FP modification in presence of peptide (order) (wild-type DegS [1]): slowest
EC50 (wild-type DegS [2]): ≤ 1000 nM
Hill Constant (peptide activation) (wild-type DegS [2]; wild-type DegS): ~1.2 ^a
apparent affinity (in words) (wild-type DegS [2]; wild-type DegS, among tested peptides): highest apparent affinity
maximal activation (in words) (wild-type DegS [2]; wild-type DegS, saturating peptide): lowest maximal activation
L0, equilibrium constant T/R of unliganded enzyme (wild-type DegS [3]): 15000
KTP/KRP (wild-type DegS [3]): 3.3
kr, rate constant for cleavage of RseA by substrate-bound R-state subunits (wild-type DegS [3]): 3.3 s⁻¹
DegS molecules in active conformation (wild-type DegS [3]; saturating peptide and saturating RseA substrate, MWC model): 9%

DNRDGNVYQF [DNRDGNVYQF]
Hill Constant (peptide activation) (D320A DegS [4]): 1.2 ± 0.1
RseA cleavage relative to wild-type DegS (D320A DegS [4]; [11]): about three-fold faster
Hill Constant (peptide activation) (wild-type DegS [2]; wild-type DegS): 1.6 ± 0.1
L0, equilibrium constant T/R of unliganded enzyme (wild-type DegS [3]): 15000
KTP/KRP (wild-type DegS [3]): 6.1
kr, rate constant for cleavage of RseA by substrate-bound R-state subunits (wild-type DegS [3]): 3.3 s⁻¹
KRS, dissociation constant of RseA substrate for R-state subunit (D320A DegS [5]): 150 µM
KTS, dissociation constant of RseA substrate for T-state subunit (D320A DegS [5]): 505 µM
L0, equilibrium constant T/R of unliganded enzyme (D320A DegS [5]): 350
KTP/KRP (D320A DegS [5]): 2.8
kr, rate constant for cleavage of RseA by substrate-bound R-state subunits (D320A DegS [5]): 3.3 s⁻¹
Hill Constant (peptide activation) (K243D mutant of DegS [6]; 200 μM RseA): 1.3 ± 0.1
RseA cleavage relative to wild-type DegS (K243D mutant of DegS [6]; [11]): about three-fold faster
KRS, dissociation constant of RseA substrate for R-state subunit (K243D mutant of DegS [7]; RseA, not peptide, binding): 150 µM
KTS, dissociation constant of RseA substrate for T-state subunit (K243D mutant of DegS [7]; RseA, not peptide, binding): 505 µM
L0, equilibrium constant T/R of unliganded enzyme (K243D mutant of DegS [7]; enzyme parameter, peptide-independent): 180
KTP/KRP (K243D mutant of DegS [7]; peptide preference for relaxed state): 1.9
kr, rate constant for cleavage of RseA by substrate-bound R-state subunits (K243D mutant of DegS [7]; same value for all enzymes and peptides): 3.3 s⁻¹

YYF tripeptide
KRP (dissociation constant for an R-state subunit) [8]: 1.24 µM
KTP (dissociation constant for a T-state subunit) [8]: 3.76 µM

EDGEDGDYYF [EDGEDGDYYF]
Hill Constant (peptide activation) (D320A DegS [4]): 1.3 ± 0.1
rate of rhodamine-FP modification in presence of peptide (order) (wild-type DegS [1]): slower still
Hill Constant (peptide activation) (wild-type DegS [2]; wild-type DegS): 1.3 ± 0.1
KRS, dissociation constant of RseA substrate for R-state subunit (D320A DegS [5]): 150 µM
KTS, dissociation constant of RseA substrate for T-state subunit (D320A DegS [5]): 505 µM
L0, equilibrium constant T/R of unliganded enzyme (D320A DegS [5]): 350
KTP/KRP (D320A DegS [5]): 2.1
kr, rate constant for cleavage of RseA by substrate-bound R-state subunits (D320A DegS [5]): 3.3 s⁻¹

NC(=O)CC[C@H](NC(=O)[C@@H](N)Cc1ccc(O)cc1)C(=O)N[C@@H](Cc1ccccc1)C(=O)O [YQF] (H-Tyr-Gln-Phe-OH)
displacement in concentration between YYF and YQF activation curves (wild-type DegS [2]; wild-type DegS): ~10 fold
Hill Constant (peptide activation) (wild-type DegS [2]; wild-type DegS): 1.6 ± 0.1

B1: OMP peptide EDGEDGDYYF (peptide)
peptide: EDGEDGDYYF
KRP (dissociation constant for an R-state subunit) [9]: 4.02 µM
KTP (dissociation constant for a T-state subunit) [9]: 8.5 µM

B2: OMP peptide DNRDGNVYYF (peptide)
peptide: DNRDGNVYYF
KRP (dissociation constant for an R-state subunit) [10]: 0.07 µM
KTP (dissociation constant for a T-state subunit) [10]: 0.14 µM
KRP (dissociation constant for an R-state subunit) [9]: 0.06 µM
KTP (dissociation constant for a T-state subunit) [9]: 0.2 µM

B3: OMP peptide DNRDGNVYQF (peptide)
peptide: DNRDGNVYQF
KRP (dissociation constant for an R-state subunit) [10]: 1.64 µM
KTP (dissociation constant for a T-state subunit) [10]: 3.19 µM
KRP (dissociation constant for an R-state subunit) [9]: 1.09 µM
KTP (dissociation constant for a T-state subunit) [9]: 2.98 µM
